Converted amounts (≈) assume the structure as drawn. “And” between values parts separate entries of the source, which are not always exact repeats. Equal entries are not always repeated. Where two headings read alike, the source gives them in different places.
Key:
[1] = target: MvfR binding to the pqsA promoter (Pseudomonas aeruginosa, UniProt Q9I4X0); type: cell-based; details: D88 −, PQS +; Figure 5c; replicates
[2] = test system: PA14 isogenic mutant ΔmvfR AT/P cells; experiment: AT/P cell formation in ΔmvfR mutant (off-target); details: Pseudomonas aeruginosa, PA14, 24 h, read-out: AT/P cell formation, ΔmvfR + compound; PA14 about 100; single replicates (Figure 4b)
[3] = test system: 16 MDR P. aeruginosa clinical isolates; experiment: Pyocyanin production in MDR clinical isolates; details: Pseudomonas aeruginosa, 18 h, Control about 100, replicates
[4] = test system: ΔmvfR biofilm; experiment: Biofilm formation of ΔmvfR mutant (off-target); details: Pseudomonas aeruginosa, PA14, 24 h, read-out: Biofilm formation, ΔmvfR + compound; PA14 about 100; single replicates (Figure 4c)
Experimental: Biofilm was grown in the 96-well microtiter plate at 37 °C for 24 h containing M63 minimal media in the presence of 10 µM of the compounds or vehicle. The biofilm grown with the vehicle was considered as a control. The percentage value was calculated in comparison to the PA14 control. a–c Data represent at least n = 3, each dot on the graph represents one biological replicate. The number of biological replicates for each compound and strain is depicted in the graph. The error bars denote ±SEM.
The overnight grown starter culture was diluted 1:1000 in 5 mL LB media in a glass tube and was incubated at 37 °C and 200 rpm in an incubator shaker until the culture reached an OD600nm 3.0. The culture was then diluted at 1:100 in M63 minimal media supplemented with 0.2% glucose, 0.5% Casamino Acids, and 1 mM MgSO4. Initiation of the Biofilm formation was performed in the 96 well plates; 200 µL of diluted culture was added in the wells with (10 µM) or without compounds. The cultures were allowed to grow at 37 °C in static conditions for 24 hours. Thereafter, planktonic culture was removed from the wells, and wells were washed three times with distilled water (DW). Biofilm was stained with 0.1% crystal violet and incubated for 15 min at room temperature (RT). Access dye was removed from the wells and washed off three times with DW, and 200 µL ethanol: acetone (80:20) was added to the wells. The plate was incubated for 30 min at RT, and the OD was measured by spectrophotometry at 570 nm in the infinite F200 plate reader using the Magellan software (Tecan, Switzerland). Percent biofilm formation was calculated in comparison to PA14 culture that was grown in the absence of compounds.

[5] = test system: PA14 biofilm; experiment: Biofilm formation in 96-well plates, PA14; type: cell-based, Pseudomonas aeruginosa; details: PA14, 10 µM, 24 h
[6] = test system: pqsA promoter (PA14 PpqsA-GFPASV); experiment: pqsA-GFP reporter expression; type: cell-based, Pseudomonas aeruginosa; details: Pseudomonas aeruginosa; for activity at 50 µM: PA14, read-out: % Production pqsA-GFP
Experimental: The expression levels of pqsA, which is representative of the pqsABCDE operon transcription, were monitored in the presence of the MvfR inhibitors using PA14 cells containing the PpqsA-GFPASV, a reporter construct of the pqsA promoter fused to a short half-life GFP gene in, such that quantitative quenching of fluorescence corresponds to pqsA promoter repression[22],[32],[48]. […] GFP fluorescence levels were measured at λex = 485 nm/λem = 535 nm after 10 seconds of shaking every 15 min up to 12 h. The IC50 of PpqsA-GFP expression levels was performed as above using the same 13 different concentrations (0.0122–50 μM) for each of the 13 compounds tested.

[7] = Solubility in iPBS pH 7.4 by HPLC; type: physicochemical; details: kinetic from dmso stock
Experimental: Solubility of the 10 mM compounds dissolved in DMSO was tested in the isotonic phosphate buffer (iPBS) at pH 7.4 using High-Performance Liquid Chromatography (HPLC). For the preparation of iPBS phosphate-buffered saline tab (Sigma-Aldrich 08057-12Tab-F) is dissolved in 500 mL of deionized water and the final composition of the solution contains 10 mM PBS, 2.7 mM KCl, 140 mM NaCl and 0.05% Tween. A total 10 µL of the compound from a 10 mM stock solution in DMSO was added to the vial, and 190 µL of buffer was added to each vial and mixed with shaking at room temperature for 4 h. Thereafter the samples were filtered, and 160 µL of the sample was mixed with 40 µL of DMSO for the final injection. Ibuprofen (high solubility) and Progesterone (low Solubility) were used as standard compounds. Ammonium Acetate aqueous solution (50 mM, pH 7.4) and the acetonitrile were used as mobile phases A and B, respectively. The measurement of concentration was achieved by comparing of UV absorbance of the sample solution and the known standard solution following an HPLC separation using a generic fast gradient method. The solubility of each compound is expressed by the ratio of compound amount in the sample test solution to the amount of compound in the standard solution.

[8] = test system: pyocyanin production in PA14; experiment: Pyocyanin production assay; details: Pseudomonas aeruginosa; for activity at 50 µM: PA14, 18 h, read-out: % Production Pyocyanin; for IC50: PA14, read-out: IC50 pyocyanin production
[9] = test system: PA14 AT/P cells; experiment: AT/P cells formation assay in PA14; type: cell-based, Pseudomonas aeruginosa; details: for inhibition at 10 µM: Pseudomonas aeruginosa, PA14, 24 h, read-out: inhibition of AT/P cells formation
[10] = test system: mvfR mutant constitutively expressing the pqsABCDE operon; type: cell-based; details: Pseudomonas aeruginosa, control about 100, single replicates (Figure 4a)
[11] = test system: MvfR-regulated small molecules in PA14; experiment: Production of HAQs, 2-AA, DHQ and AA in PA14 cultures (LC-MS); details: Pseudomonas aeruginosa
[12] = read-out: Pyocyanin production relative to Control, clinical isolate LGR-4325
[13] = read-out: Pyocyanin production relative to Control, clinical isolate LGR-4326
[14] = read-out: Pyocyanin production relative to Control, clinical isolate LGR-4327
[15] = read-out: Pyocyanin production relative to Control, clinical isolate LGR-4328
[16] = read-out: Pyocyanin production relative to Control, clinical isolate LGR-4330
[17] = read-out: Pyocyanin production relative to Control, clinical isolate LGR-4331 (first section, r117)
[18] = read-out: Pyocyanin production relative to Control, clinical isolate LGR-4331 (second section, r140)
[19] = read-out: Pyocyanin production relative to Control, clinical isolate LGR-4333
[20] = read-out: Pyocyanin production relative to Control, clinical isolate LGR-4343
[21] = read-out: Pyocyanin production relative to Control, clinical isolate LGR-4344
[22] = read-out: Pyocyanin production relative to Control, clinical isolate LGR-4348
[23] = read-out: Pyocyanin production relative to Control, clinical isolate LGR-4356
[24] = read-out: Pyocyanin production relative to Control, clinical isolate LGR-4362
[25] = read-out: Pyocyanin production relative to Control, clinical isolate LGR-4363
[26] = read-out: Pyocyanin production relative to Control, clinical isolate LGR-4364 (first section, r326)
[27] = read-out: Pyocyanin production relative to Control, clinical isolate LGR-4364 (second section, r349)
[28] = read-out: DHQ, ΔmvfR-pqsABCD strain
[29] = read-out: HQNO, ΔmvfR-pqsABCD strain
[30] = read-out: PQS, ΔmvfR-pqsABCD strain

Sequence of MvfR binding to the pqsA promoter (Q9I4X0 whole entry, looked up): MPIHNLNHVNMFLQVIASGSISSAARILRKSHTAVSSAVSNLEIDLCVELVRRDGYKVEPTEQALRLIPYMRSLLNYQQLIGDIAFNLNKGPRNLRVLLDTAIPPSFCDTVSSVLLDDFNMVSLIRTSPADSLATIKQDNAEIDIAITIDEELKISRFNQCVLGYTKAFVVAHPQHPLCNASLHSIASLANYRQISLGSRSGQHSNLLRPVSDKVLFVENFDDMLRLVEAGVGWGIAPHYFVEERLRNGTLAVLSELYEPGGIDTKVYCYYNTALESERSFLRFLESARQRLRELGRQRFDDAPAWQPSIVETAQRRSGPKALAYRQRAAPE

Row | SMILES | activity at 10 µM [2] [%] | activity at 10 µM [3, 12] [%] | activity at 10 µM [3, 13] [%] | activity at 10 µM [3, 14] [%] | activity at 10 µM [3, 15] [%] | activity at 10 µM [3, 16] [%] | activity at 10 µM [3, 17] [%] | activity at 10 µM [3, 18] [%] | activity at 10 µM [3, 19] [%] | activity at 10 µM [3, 20] [%] | activity at 10 µM [3, 21] [%] | activity at 10 µM [3, 22] [%] | activity at 10 µM [3, 23] [%] | activity at 10 µM [3, 24] [%] | activity at 10 µM [3, 25] [%] | activity at 10 µM [3, 26] [%] | activity at 10 µM [3, 27] [%] | activity at 10 µM [4] [%] | activity at 50 µM [6] [%] | activity at 50 µM [8] [%] | other results
1 | CCCCCCCc1nc2ccccc2c(O)c1O [PQS] | – | – | – | – | – | – | – | – | – | – | – | – | – | – | – | – | – | – | – | – | MvfR binding to the pqsA promoter (ChIP-qPCR) [1]: 12.2267 and 11.783 and 5.7525
2 | O=C(Nc1ccc(Oc2ccccc2)cc1)C(F)C(=O)Nc1ccc(C(F)(F)F)cc1 (stereo not drawn) [D100] | 42.2 | 13.3 | 19.1 | 21.7 | 31.1 | 31.1 | 23.5 | 12 | 15.4 | 13.4 | 16.3 | 26.1 | 16.4 | 33 | 10.2 | 13.3 | 10.6 | 39.3 | 2 | 7 | biofilm formation inhibition rate [5]: highest inhibition; solubility at 4 h ([7]; isotonic phosphate buffer (iPBS), aqueous with cosolvent or surfactant or cyclodextrin, iPBS pH 7.4, HPLC, read-out: Solubility (M) in PBS): 5e-06 M (≈ 2.16 µg/mL); IC50 [8]: 0.38 µM; AT/P cells formation, percentage of control (single replicates) ([9]; PA14, 10 μg mL^−1 meropenem, 10 µM compound, 24 h, control PA14 + vehicle): 18.86% and 47.86% and 24.02%; inhibition at 10 µM [9]: ≥ 51%; activity at 50 µM ([10]; read-out: 2-AA, ΔmvfR-pqsABCD strain): 97.5%; activity at 50 µM [10, 28]: 92.5%; activity at 50 µM ([10]; read-out: HHQ, ΔmvfR-pqsABCD strain): 104%; activity at 50 µM [10, 29]: 98.7%; activity at 50 µM [10, 30]: 81.3%
3 | N#Cc1ccc(NC(=O)CC(=O)Nc2ccc(C#N)c(Cl)c2)cc1 [D95] | 35.3 | 11.5 | 6.63 | 14.1 | 16.3 | 19.6 | 14.8 | 7.46 | 9.75 | 12.1 | 14.6 | 19.2 | 7.92 | 30.4 | 9.55 | 8.11 | 13.7 | 17.7 | 6 | 4 | IC50 ([6]; PA14, read-out: IC50 pqsA-GFP expression, PA14, 13 concentrations): 1.09 µM; solubility at 4 h ([7]; pH 7.4, aqueous with cosolvent or surfactant or cyclodextrin): 1.7e-05 M (≈ 5.76 µg/mL); IC50 [8]: 0.9 µM; activity at 50 µM ([11]; PA14, read-out: % Production 2-AA): 11%; activity at 50 µM ([11]; PA14, read-out: % Production AA): 774%; activity at 50 µM ([11]; PA14, read-out: % Production DHQ): 13%; activity at 50 µM ([11]; PA14, read-out: % Production HHQ): 5%; activity at 50 µM ([11]; PA14, read-out: % Production HQNO): 30%; activity at 50 µM ([11]; PA14, read-out: % Production PQS): 10%; inhibition at 50 µM ([11]; PA14, read-out: HHQ production inhibition): 89 to 99%; inhibition at 50 µM ([11]; PA14, read-out: HQNO production inhibition): 40 to 92%; inhibition at 50 µM ([11]; PA14, read-out: PQS production inhibition): 76 to 97%; inhibition at 50 µM ([11]; PA14, read-out: inhibition of 2-AA production): 82 to 95%; inhibition at 50 µM ([11]; PA14, read-out: inhibition of DHQ production): 82 to 96%; inhibition at 10 µM [9]: ≥ 51%; activity at 50 µM [10, 28]: 95.2%; activity at 50 µM [10, 29]: 97.2%; activity at 50 µM [10, 30]: 100%

From publication PMC9428149, “Tackling recalcitrant Pseudomonas aeruginosa infections in critical illness via anti-virulence monotherapy” (Nature Communications, 2022)
